Key:
CDK2/CycE = target: T1, CDK2/CycE (Homo sapiens, UniProt P24941); assay: CDK2/CycE kinase assay (TR-FRET, Method 2a); assay type: biochemical; settings: 10 μM ATP
T1 construct: GST; purchased ProQinase GmbH (Freiburg, Germany); host or cells: insect cells (Sf9)
Source text: 2a. CDK2/CycE Kinase Assay:
CDK2/CycE-inhibitory activity of compounds of the present invention was quantified employing the CDK2/CycE TR-FRET assay as described in the following paragraphs:
Recombinant fusion proteins of GST and human CDK2 and of GST and human CycE, expressed in insect cells (Sf9) and purified by Glutathion-Sepharose affinity chromatography, were purchased from ProQinase GmbH (Freiburg, Germany). As substrate for the kinase reaction biotinylated peptide biotin-Ttds-YISPLKSPYKISEG (C-terminus in amid form) was used which can be purchased e.g. from the company JERINI Peptide Technologies (Berlin, Germany).
For the assay 50 nl of a 100 fold concentrated solution of the test compound in DMSO was pipetted into a black low volume 384 well microtiter plate (Greiner Bio-One, Frickenhausen, Germany), 2 μl of a solution of CDK2/CycE in aqueous assay buffer [50 mM Tris/HCl pH 8.0, 10 mM MgCl2, 1.0 mM dithiothreitol, 0.1 mM sodium ortho-vanadate, 0.01% (v/v) Nonidet-P40 (Sigma)] were added and the mixture was incubated for 15 min at 22° C. to allow pre-binding of the test compounds to the enzyme before the start of the kinase reaction. […] The concentration of CDK2/CycE was adjusted depending of the activity of the enzyme lot and was chosen appropriate to have the assay in the linear range, typical concentrations were in the range of 130 ng/mL. The reaction was stopped by the addition of 5 μl of a solution of TR-FRET detection reagents (0.2 μM streptavidine-XL665 [Cisbio Bioassays, Codolet, France] and 1 nM anti-RB(pSer807/pSer811)-antibody from BD Pharmingen [#558389] and 1.2 nM LANCE EU-W1024 labeled anti-mouse IgG antibody [Perkin-Elmer, product no. AD0077]) in an aqueous EDTA-solution (100 mM EDTA, 0.2% (w/v) bovine serum albumin in 100 mM HEPES pH 7.5).
The resulting mixture was incubated 1 h at 22° C. to allow the formation of complex between the phosphorylated biotinylated peptide and the detection reagents. Subsequently the amount of phosphorylated substrate was evaluated by measurement of the resonance energy transfer from the Eu-chelate to the streptavidine-XL. Therefore, the fluorescence emissions at 620 nm and 665 nm after excitation at 350 nm was measured in a TR-FRET reader, e.g. a Rubystar (BMG Labtechnologies, Offenburg, Germany) or a Viewlux (Perkin-Elmer). The ratio of the emissions at 665 nm and at […] was taken as the measure for the amount of phosphorylated substrate. The data were normalised (enzyme reaction without inhibitor=0% inhibition, all other assay components but no enzym=100% inhibition).

MOLM-13 cells = assay: Proliferation assay, Cell Titre-Glo viability (Method 3); assay type: cell-based; settings: Homo sapiens; MOLM-13, 72-hour exposure; read-out: Inhibition of MOLM-13 cell proliferation IC50
Description: A2780 human ovarian carcinoma cells (ECACC #93112519) and non-adherent MOLM-13 human acute myeloid leukemia cells (DSMZ ACC 554) were seeded at a density of 3,000 cell/well (A2780) or 5,000 cells/well (MOLM-13) in a 96-well multititer plate in 150 μL of growth medium supplemented 10% fetal calf serum. After 24 hours, cell viability of one plate (zero-point plate) was determined with the Cell Titre-Glo Luminescent Cell Viability Assay (Promega), while the medium of the other plates was supplemented with the test substances in various concentrations (0 μM, as well as in the range of 0.0001-10 μM; the final concentration of the solvent dimethyl sulfoxide was adjusted to 0.1%) using a Hewlett-Packard HP D300 Digital Dispenser. Cell viability was assessed after 72-hour exposure with the Cell
Titre-Glo Luminescent Cell Viability Assay (Promega). IC50 values (inhibitory concentration at 50% of maximal effect) were determined by means of a 4 parameter fit on measurement data which were normalized to vehicle (DMSO) treated cells (=100%) and measurement readings taken immediately before compound exposure (=0%).

IC50 (CDK2/CycE) [nM] | IC50 (MOLM-13 cells) [nM] | SMILES
 | 162 | CC(C)(C)OC(=O)N=S(C)(=O)Cc1cc2cc(c1)OCCCCSc1cc(F)ccc1-c1nc(ncc1F)N2 (racemic) [Example 21, (rac)-tert-butyl[{[16,20-difluoro-2,3,4,5-tetrahydro-12H-17,13-(azeno)-11,7-(metheno)-6,1,12,14-benzoxathiadiazacyclononadecin-9-yl]methyl}(methyl)oxido-λ^6-sulfanylidene]carbamate]
2570 |  | CC(C)(C)OC(=O)N=S(C)(=O)Cc1cc2cc(c1)Nc1ncc(F)c(n1)-c1ccc(F)cc1OCCCCN2 (racemic) [Example 24, (rac)-tert-butyl[{[16,20-difluoro-3,4,5,6-tetrahydro-2H,12H-13,17-(azeno)-11,7-(metheno)-1,6,12,14-benzoxatriazacyclononadecin-9-yl]methyl}(methyl)oxido-λ^6-sulfanylidene]carbamate]
2560 |  | CSCc1cc2nc(c1)OCCCCCc1cc(F)ccc1-c1cc(ncc1F)N2 [Example 18, 2,19-difluoro-9-[(methylsulfanyl)methyl]-14,15,16,17-tetrahydro-6H,13H-7,11-(azeno)-5,1-(metheno)-12,4,6-benzoxadiazacyclononadecine]

More lines, now with the values behind:

SMILES | IC50 (CDK2/CycE) [nM] | IC50 (MOLM-13 cells) [nM]
CS(=N)(=O)Cc1cc2nc(c1)Nc1cc(c(F)cn1)-c1ccc(F)cc1OCCCCN2 (racemic) [Example 3, (rac)-16,20-Difluoro-9-[(S-methylsulfonimidoyl)methyl]-3,4,5,6-tetrahydro-2H,12H-11,7-(azeno)-13,17-(metheno)-1,6,12,14-benzoxatriazacyclononadecine] | 44 | 3.4
CS(=N)(=O)Cc1cc2nc(c1)Nc1cc(c(F)cn1)-c1ccc(F)cc1OCCCN2 (racemic) [Example 8, (rac)-15,19-difluoro-8-[(S-methylsulfonimidoyl)methyl]-2,3,4,5-tetrahydro-11H-10,6-(azeno)-16,12-(metheno)-1,5,11,13-benzoxatriazacyclooctadecine] | 9.1 | 2.2
CC(C)(C)OC(=O)N=S(C)(=O)Cc1cc2nc(c1)Nc1cc(c(F)cn1)-c1ccc(F)cc1OCCCCCN2 (racemic) [Example 9, (rac)-tert-butyl[{[17,21-difluoro-2,3,4,5,6,7-hexahydro-13H-12,8-(azeno)-14,18-(metheno)-1,7,13,15-benzoxatriazacycloicosin-10-yl]methyl}(methyl)oxido-λ^6-sulfanylidene]carbamate] | 96 | 19
CS(=N)(=O)Cc1cc2nc(c1)Nc1cc(c(F)cn1)-c1ccc(F)cc1OCCCCCN2 (racemic) [Example 10, (rac)-17,21-difluoro-10-[(S-methylsulfonimidoyl)methyl]-2,3,4,5,6,7-hexahydro-13H-12,8-(azeno)-14,18-(metheno)-1,7,13,15-benzoxatriazacycloicosine] | 28 | 4.4
CC(C)(C)OC(=O)N=S(C)(=O)Cc1cc2cc(c1)OCCCNc1cc(F)ccc1-c1nc(ncc1F)N2 (racemic) [Example 13, (rac)-tert-butyl[{[15,19-difluoro-1,2,3,4-tetrahydro-16,12-(azeno)-6,10-(metheno)-5,1,11,13-benzoxatriazacyclooctadecin-8(11H)-yl]methyl}(methyl)oxido-λ^6-sulfanylidene]carbamate] |  | 14
CS(=N)(=O)Cc1cc2cc(c1)OCCCNc1cc(F)ccc1-c1nc(ncc1F)N2 (racemic) [Example 14, rac-15,19-difluoro-8-[(S-methylsulfonimidoyl)methyl]-1,2,3,4-tetrahydro-16,12-(azeno)-6,10-(metheno)-5,1,11,13-benzoxatriazacyclooctadecine] |  | 3.1
CSCc1cc2nc(c1)Nc1cc(c(F)cn1)-c1ccc(F)cc1OCCCN2 [Example 1, 15,19-Difluoro-8-[(methylsulfanyl)methyl]-2,3,4,5-tetrahydro-11H-10,6-(azeno)-12,16-(metheno)-1,5,11,13-benzoxatriazacyclooctadecine] | 81.5 | 8

From patent publication US10214542B2, “Modified macrocyclic compounds” (BAYER PHARMA AKTIENGESELLSCHAFT, priority 2015, dated 2019)
